Measured values taken from ChEMBL document CHEMBL5505958, “Optimization of sequence and chiral content enhances therapeutic potential of tilapia piscidin peptides” (Eur J Med Chem, 2024).
≈ marks a conversion by molar mass, not a printed value. Calls of active or inactive are those of the source. The rule behind the calls is not given here.

Experiments:
Klebsiella aerogenes [1] = assay: Antibacterial activity against Enterobacter aerogenes 15630 assessed as inhibition of bacterial growth incubated for 16 to 20 hrs; assay type: functional; settings: time 16-20 hrs
Salmonella typhimurium [2] = assay: Antibacterial activity against Salmonella typhimurium DT104 assessed as inhibition of bacterial growth incubated for 16 to 20 hrs; assay type: functional, Salmonella enterica subsp. enterica serovar Typhimurium; settings: Salmonella enterica, time 16-20 hrs
Salmonella enterica [3] = assay: Antibacterial activity against Salmonella enterica 15455 assessed as inhibition of bacterial growth incubated for 16 to 20 hrs; assay type: functional; settings: time 16-20 hrs
Vibrio vulnificus [4] = assay: Antibacterial activity against Vibrio vulnificus 204 assessed as inhibition of bacterial growth incubated for 16 to 20 hrs; assay type: functional; settings: time 16-20 hrs
Yersinia enterocolitica [5] = assay: Antibacterial activity against Yersinia enterocolitica 13999 assessed as inhibition of bacterial growth incubated for 16 to 20 hrs; assay type: functional; settings: time 16-20 hrs
Klebsiella pneumoniae [6] = assay: Antibacterial activity against Klebsiella pneumoniae BAA 2473 assessed as inhibition of bacterial growth incubated for 16 to 20 hrs; assay type: functional; settings: time 16-20 hrs
[7] = test system: Staphylococcus haemolyticus; assay: Antibacterial activity against Staphylococcus haemolyticus 15237 assessed as inhibition of bacterial growth incubated for 16 to 20 hrs; assay type: functional; settings: time 16-20 hrs
Klebsiella aerogenes [8] = assay: Bactericidal activity against Enterobacter aerogenes 15630 assessed as inhibition of bacterial growth incubated for 16 to 20 hrs; assay type: functional; settings: time 16-20 hrs
Salmonella typhimurium [9] = assay: Bactericidal activity against Salmonella typhimurium DT104 assessed as inhibition of bacterial growth incubated for 16 to 20 hrs; assay type: functional, Salmonella enterica subsp. enterica serovar Typhimurium; settings: Salmonella enterica, time 16-20 hrs
Salmonella enterica [10] = assay: Bactericidal activity against Salmonella enterica 15455 assessed as inhibition of bacterial growth incubated for 16 to 20 hrs; assay type: functional; settings: time 16-20 hrs
Yersinia enterocolitica [11] = assay: Bactericidal activity against Yersinia enterocolitica 13999 assessed as inhibition of bacterial growth incubated for 16 to 20 hrs; assay type: functional; settings: time 16-20 hrs
Klebsiella pneumoniae [12] = assay: Bactericidal activity against Klebsiella pneumoniae BAA 2473 assessed as inhibition of bacterial growth incubated for 16 to 20 hrs; assay type: functional; settings: time 16-20 hrs
[13] = test system: Staphylococcus haemolyticus; assay: Bactericidal activity against Staphylococcus haemolyticus 15237 assessed as inhibition of bacterial growth incubated for 16 to 20 hrs; assay type: functional; settings: time 16-20 hrs
Rhizopus arrhizus [14] = assay: Fungicidal activity against Rhizopus oryzae 34550 assessed as inhibition of fungal growth incubated for 72 hrs; assay type: functional
Escherichia coli [15] = assay: Antibacterial activity against Escherichia coli 10675 assessed as inhibition of bacterial growth incubated for 16 to 20 hrs in presence of human serum; assay type: functional; settings: time 16-20 hrs
Klebsiella oxytoca [16] = assay: Antibacterial activity against Klebsiella oxytoca 13985 assessed as inhibition of bacterial growth incubated for 16 to 20 hrs in presence of human serum; assay type: functional; settings: time 16-20 hrs
Vibrio vulnificus [17] = assay: Antibacterial activity against Vibrio vulnificus 204 assessed as inhibition of bacterial growth incubated for 16 to 20 hrs in presence of human serum; assay type: functional; settings: time 16-20 hrs
Klebsiella pneumoniae [18] = assay: Antibacterial activity against Klebsiella pneumoniae TL 297 assessed as inhibition of bacterial growth incubated for 16 to 20 hrs in presence of human serum; assay type: functional; settings: time 16-20 hrs
Escherichia coli [19] = assay: Bactericidal activity against Escherichia coli 10675 assessed as inhibition of bacterial growth incubated for 16 to 20 hrs in presence of human serum; assay type: functional; settings: time 16-20 hrs
Acinetobacter baumannii = assay: Bactericidal activity against Acinetobacter baumannii 10591 assessed as inhibition of bacterial growth incubated for 16 to 20 hrs in presence of human serum; assay type: functional; settings: time 16-20 hrs
Pseudomonas aeruginosa = assay: Bactericidal activity against Pseudomonas aeruginosa 19660 assessed as inhibition of bacterial growth incubated for 16 to 20 hrs in presence of human serum; assay type: functional; settings: time 16-20 hrs
Klebsiella oxytoca [20] = assay: Bactericidal activity against Klebsiella oxytoca 13985 assessed as inhibition of bacterial growth incubated for 16 to 20 hrs in presence of human serum; assay type: functional; settings: time 16-20 hrs
Vibrio vulnificus [21] = assay: Bactericidal activity against Vibrio vulnificus 204 assessed as inhibition of bacterial growth incubated for 16 to 20 hrs in presence of human serum; assay type: functional; settings: time 16-20 hrs
Klebsiella pneumoniae [22] = assay: Bactericidal activity against Klebsiella pneumoniae TL 297 assessed as inhibition of bacterial growth incubated for 16 to 20 hrs in presence of human serum; assay type: functional; settings: time 16-20 hrs
Enterococcus faecium = assay: Bactericidal activity against Enterococcus faecium 10067 assessed as inhibition of bacterial growth incubated for 16 to 20 hrs in presence of human serum; assay type: functional; settings: time 16-20 hrs
Rhizopus arrhizus [23] = assay: Fungicidal activity against Rhizopus oryzae 34550 assessed as inhibition of fungal growth incubated for 16 to 20 hrs in presence of human serum; assay type: functional; settings: time 16-20 hrs
Klebsiella pneumoniae [24] = assay: Antibacterial activity against Klebsiella pneumoniae BAA 2473 assessed as inhibition of bacterial growth in presence of 1 microg/ml of trypsin (reference value: 1.56 to 3.13 microM); assay type: functional
Klebsiella pneumoniae [25] = assay: Antibacterial activity against Klebsiella pneumoniae BAA 2473 assessed as inhibition of bacterial growth in presence of 0.1 microg/ml of chymotrypsin (reference value: 1.56 to 3.13 microM); assay type: functional
Klebsiella pneumoniae [26] = assay: Antibacterial activity against Klebsiella pneumoniae BAA 2473 assessed as inhibition of bacterial growth in presence of 1 microg/ml of chymotrypsin (reference value: 1.56 to 3.13 microM); assay type: functional
Klebsiella pneumoniae [27] = assay: Antibacterial activity against Klebsiella pneumoniae BAA 2473 assessed as inhibition of bacterial growth in presence of 1 microg/ml of pepsin (reference value: 1.56 to 3.13 microM); assay type: functional
Klebsiella pneumoniae [28] = assay: Antibacterial activity against Klebsiella pneumoniae BAA 2473 assessed as inhibition of bacterial growth in presence of 1 microg/ml of proteinase K (reference value: 1.56 to 3.13 microM); assay type: functional
Klebsiella pneumoniae [29] = assay: Antibacterial activity against Klebsiella pneumoniae BAA 2473 assessed as inhibition of bacterial growth in presence of 10 microg/ml of proteinase K (reference value: 1.56 to 3.13 microM); assay type: functional
Klebsiella pneumoniae [30] = assay: Bactericidal activity against Klebsiella pneumoniae BAA 2473 assessed as inhibition of bacterial growth in presence of 0.1 microg/ml of trypsin (reference value: 1.56 to 3.13 microM); assay type: functional
Klebsiella pneumoniae [31] = assay: Bactericidal activity against Klebsiella pneumoniae BAA 2473 assessed as inhibition of bacterial growth in presence of 1 microg/ml of trypsin (reference value: 1.56 to 3.13 microM); assay type: functional
Klebsiella pneumoniae [32] = assay: Bactericidal activity against Klebsiella pneumoniae BAA 2473 assessed as inhibition of bacterial growth in presence of 1 microg/ml of chymotrypsin (reference value: 1.56 to 3.13 microM); assay type: functional
Klebsiella pneumoniae [33] = assay: Bactericidal activity against Klebsiella pneumoniae BAA 2473 assessed as inhibition of bacterial growth in presence of 10 microg/ml of chymotrypsin (reference value: 1.56 to 3.13 microM); assay type: functional
Klebsiella pneumoniae [34] = assay: Bactericidal activity against Klebsiella pneumoniae BAA 2473 assessed as inhibition of bacterial growth in presence of 1 microg/ml of pepsin (reference value: 1.56 to 3.13 microM); assay type: functional
Klebsiella pneumoniae [35] = assay: Bactericidal activity against Klebsiella pneumoniae BAA 2473 assessed as inhibition of bacterial growth in presence of 10 microg/ml of pepsin (reference value: 1.56 to 3.13 microM); assay type: functional
Klebsiella pneumoniae [36] = assay: Bactericidal activity against Klebsiella pneumoniae BAA 2473 assessed as inhibition of bacterial growth in presence of 0.1 microg/ml of proteinase K (reference value: 1.56 to 3.13 microM); assay type: functional
Cell membrane = assay: Induction of cell membrane depolarization in Klebsiella pneumoniae BAA 2473 assessed as increase in fluorescence intensity at 1 times MIC incubated for 40 mins by DiBAC4(3) fluorescent dye based assay; assay type: cell membranes

Compound | MIC (Klebsiella aerogenes [1]) | MIC (Salmonella typhimurium [2]) | MIC (Salmonella enterica [3]) | MIC (Vibrio vulnificus [4]) | MIC (Yersinia enterocolitica [5]) | MIC (Klebsiella pneumoniae [6]) | MIC [7] | MBC (Klebsiella aerogenes [8]) | MBC (Salmonella typhimurium [9]) | MBC (Salmonella enterica [10]) | MBC (Yersinia enterocolitica [11]) | MBC (Klebsiella pneumoniae [12]) | MBC [13] | MFC (Rhizopus arrhizus [14]) | MIC (Escherichia coli [15]) | MIC (Klebsiella oxytoca [16]) | MIC (Vibrio vulnificus [17]) | MIC (Klebsiella pneumoniae [18]) | MBC (Escherichia coli [19]) | MBC (Acinetobacter baumannii) | also measured
H-FIHHIIGGLFSAGKAIHRLIRRRRR-OH | 0.78 µM | 6.25 µM | 3.13 µM | 3.13 µM | 3.13 µM | 1.56 µM | 1.56 µM | 6.25 µM | 6.25 µM | < 1.56 µM | 3.13 µM | 3.13 µM | 1.56 µM | 1.56 µM | > 100 µM | > 100 µM | > 100 µM | > 100 µM | > 100 µM | 100 µM | MBC (Pseudomonas aeruginosa): 100 µM; MBC (Klebsiella oxytoca [20]): > 100 µM; MBC (Vibrio vulnificus [21]): > 100 µM; MBC (Klebsiella pneumoniae [22]): > 100 µM; MBC (Enterococcus faecium): 100 µM; MBC (Rhizopus arrhizus [23]): 100 µM; MIC (Klebsiella pneumoniae [24]): > 100 µM; MIC (Klebsiella pneumoniae [25]): 1.56 µM; MIC (Klebsiella pneumoniae [26]): > 100 µM; MIC (Klebsiella pneumoniae [27]): > 100 µM; MIC (Klebsiella pneumoniae [28]): > 100 µM; MIC (Klebsiella pneumoniae [29]): > 100 µM; MBC (Klebsiella pneumoniae [30]): 3.13 µM; MBC (Klebsiella pneumoniae [31]): > 100 µM; MBC (Klebsiella pneumoniae [32]): > 100 µM; MBC (Klebsiella pneumoniae [33]): > 100 µM; MBC (Klebsiella pneumoniae [34]): > 100 µM; MBC (Klebsiella pneumoniae [35]): > 100 µM; MBC (Klebsiella pneumoniae [36]): 1.56 µM; Activity (Cell membrane): Active
CC(C)C[C@H](NC(=O)[C@@H](C)NC(=O)[C@@H](CCCCN)NC(=O)[C@H](CC(C)C)NC(=O)[C@@H](CC(C)C)NC(=O)[C@@H](CCCCN)NC(=O)[C@H](CCCCN)NC(=O)[C@@H](CC(C)C)NC(=O)[C@H](N)Cc1ccccc1)C(=O)N[C@H](Cc1ccccc1)C(=O)N[C@H](CO)C(=O)N[C@@H](C)C(=O)N1CCC[C@@H]1C(=O)N[C@H](CCCCN)C(=O)N[C@@H](C)C(=O)N[C@H](CC(C)C)C(=O)N[C@H](CCCCN)C(=O)N[C@@H](CCCNC(=N)N)C(=O)N[C@H](CC(C)C)C(=O)N[C@H](CC(C)C)C(=O)N[C@@H](CCCNC(=N)N)C(=O)N[C@H](CCCNC(=N)N)C(=O)N[C@H](CCCNC(=N)N)C(=O)N[C@@H](CCCNC(=N)N)C(=O)N[C@@H](CCCNC(=N)N)C(=O)O | 3.13 µM (≈ 9.64 µg/mL) | 3.13 µM (≈ 9.64 µg/mL) | 3.13 µM (≈ 9.64 µg/mL) | 6.25 µM (≈ 19.2 µg/mL) | 3.13 µM (≈ 9.64 µg/mL) | 0.78 µM (≈ 2.4 µg/mL) | 1.56 µM (≈ 4.8 µg/mL) | 3.13 µM (≈ 9.64 µg/mL) | 3.13 µM (≈ 9.64 µg/mL) | 3.13 µM (≈ 9.64 µg/mL) | 3.13 µM (≈ 9.64 µg/mL) | 25 µM (≈ 77 µg/mL) | 1.56 µM (≈ 4.8 µg/mL) | 1.56 µM (≈ 4.8 µg/mL) | 0.78 µM | 6.25 µM | 12.5 µM | 1.56 µM | 0.78 µM | 3.13 µM | MBC (Pseudomonas aeruginosa): 3.13 µM; MBC (Klebsiella oxytoca [20]): 6.25 µM; MBC (Vibrio vulnificus [21]): 12.5 µM; MBC (Klebsiella pneumoniae [22]): 1.56 µM; MBC (Enterococcus faecium): 100 µM; MFC (Rhizopus arrhizus [23]): 100 µM; MIC (Klebsiella pneumoniae [24]): 0.78 µM; MIC (Klebsiella pneumoniae [25]): 0.78 µM; MIC (Klebsiella pneumoniae [26]): 0.78 µM; MIC (Klebsiella pneumoniae [27]): 0.78 µM; MIC (Klebsiella pneumoniae [28]): 0.78 µM; MIC (Klebsiella pneumoniae [29]): 0.78 µM; MBC (Klebsiella pneumoniae [30]): 1.56 µM; MBC (Klebsiella pneumoniae [31]): 1.56 µM; MBC (Klebsiella pneumoniae [32]): 0.78 µM; MBC (Klebsiella pneumoniae [33]): 0.78 µM; MBC (Klebsiella pneumoniae [34]): 1.56 µM; MBC (Klebsiella pneumoniae [35]): 1.56 µM; MBC (Klebsiella pneumoniae [36]): 1.56 µM; Activity (Cell membrane): Active
